Data published in patent US5023273A, “6-oxoprostaglandin E derivatives, process for their production and their pharmaceutical use” (Schering Aktiengesellschaft, priority 1987, dated 1991).

What was measured:
Thrombocyte [1] = assay: Thrombocyte shape change; assay type: cell-based
Protocol: (§1) The pharmacological comparison tests, which were conducted with the compounds from examples 1 and 4 in comparison with 6-oxo-PGE1, are summarized in the following table.

Thrombocyte [2] = assay: Thrombocyte aggregation inhibition; assay type: cell-based
Protocol: as §1

[3] = system: Stomach (rats, trauma with ethanol); assay: Cytoprotection, stomach (rats, trauma with ethanol); assay type: in vivo; details: 10 micrograms/kg
Protocol: as §1

| SMILES | IC50 (Thrombocyte [1]) | IC50 (Thrombocyte [2]) | Cytoprotection, stomach: inhibition [3] |
| --- | --- | --- | --- |
| CCC#CC[C@H](C)[C@H](O)C#C[C@H]1[C@H](O)CC(=O)[C@@H]1CC(=O)CCCCC(=O)O [Example 4, (11R,15S,16S)-6,9-di-oxo-11,15-dihydroxy-16,20-dimethyl-13,14,18,18,19,19-hexadehydroxy-13-prostenoic acid] | 1 nM | 0.09 nM | – |
| CCCCC[C@H](O)/C=C/[C@H]1[C@H](O)CC(=O)[C@@H]1CC(=O)CCCCC(=O)O [Example 6oxoPGE1, reference compound] | – | 7 nM | 52% |
| CC#CCC(C)[C@H](O)/C=C/[C@H]1[C@H](O)CC(=O)[C@@H]1CC(=O)CCCCC(=O)O (mixture of isomers) [Example 1, (13E)-(11R,15S,16RS)-6,9-Di-oxo-11,15-dihydroxy-16-methyl-18,18,19,19-tetradehydro-13-prostenoic acid] | 10 nM | 1.7 nM | – |
